In patent publication US9556164B2, “Salts of Dasatinib in crystalline form” (BASF SE, priority 2013, dated 2017):

Settings: DVS at 25° C., humidity program 50% r.h. to 95% r.h. and back to 50% r.h.
Procedure: Dynamic vapor sorption: DVS is performed at 25° C. with an SPS11-100n “Sorptions Prüfsystem” of Projekt Messtechnik, D-89077 Ulm (Germany). About 25 mg of sample is put into an aluminum sample pan. Humidity program: 50% relative humidity (r.h.) for 2 hours, 50% r.h. to 95% r.h. (humidity change rate 5% per hour), 95% r.h. for 5 hours, 95% r.h. to 50% r.h. (humidity change rate 5% per hour), 50% r.h. for 2 hours.

## Cc1nc(Nc2ncc(C(=O)Nc3c(C)cccc3Cl)s2)cc(N2CCN(CCO)CC2)n1.O=C1NS(=O)(=O)c2ccccc21 [Example 5, Dasatinib saccharinate (hydrate)]
  hygroscopicity by DVS: not hygroscopic
